# Source: patent publication US20100035865A1, “Sulfonamides and Pharmaceutical Compositions Thereof” (PFIZER INC, priority 2007, published 2010)
# “And” between values parts separate entries of the source, which are not always exact repeats. Identical values can stand only once. Like-named read-outs stand apart in the source and are kept apart here.
# Tested on: AMPA receptors
# Assay: AMPA ES Cell FLIPR Screen, G7330B (EC50 and % effect)
# Format: cell-based, murine
# Conditions: for EC50: ES cell-derived neurons, 32 uM AMPA challenge
# Procedure: The murine ES cell line used was E14-Sx1-16C, which has a targeted mutation in the Sox1 gene, a neuroectodermal marker, that offers G418 resistance when the Sox1 gene is expressed (Stem Cell Sciences). ES cells were maintained undifferentiated as previously described (Roach). […] ES cells were plated on gelatin-coated dishes (BD Biosciences), the media was changed daily and the cells were dissociated with 0.05% Trypsin EDTA (Invitrogen) every other day.
# Embryoid Body Formation: Prior to embryoid body (EB) formation the ES cells were weaned from FBS onto Knockout Serum Replacement (KSR) (Invitrogen). To form EBs, ES cells were dissociated into a single cell suspension then 3×10^6 cells were plated in bacteriology dishes (Nunc 4014) and grown as a suspension culture in NeuroEB-I medium that consisted of Knockout™ D-MEM (Invitrogen), supplemented with 10% KSR (Invitrogen), 0.2 mM L-Glutamine (Invitrogen), 0.1 mM MEM non-essential amino acids (Invitrogen), 30 μg/ml Gentamicin (Invitrogen), 1000 u/ml ESGRO (Chemicon), 0.1 mM 2-Mercaptoethanl (Sigma) and 150 ng/ml Transferrin (Invitrogen). The plates were put on a Stovall Belly Button shaker in an atmospheric oxygen incubator. The media was changed on day 2 of EB formation with NeuroEB-I and on day 4 with NeuroEB-II (NeuroEB-I plus 1 μg/ml mNoggin [R&D Systems]).
# Neuronal Precursor Selection and Expansion: On day 5 of EB formation, EBs were dissociated with 0.05% Trypsin EDTA, and 4×10^6 cells/100 mm dish were plated on Laminin coated tissue culture dishes in NeuroII-G418 medium that consisted of a base medium of a 1:1 mixture of D-MEM/F12 supplemented with N2 supplements and NeuroBasal Medium supplemented with B27 supplement and 0.1 mM L-Glutamine (all from Invitrogen). The base medium was then supplemented with 10 ng/ml bFGF (Invitrogen), 1 μg/ml mNoggin, 500 ng/ml SHH-N, 100 ng/ml FGF-8b (R&D Systems), 1 μg/ml Laminin and 200 μg/ml G418 (Invitrogen) for selection of neuronal precursors expressing Sox-1. The plates were put in an incubator that contained 2% Oxygen and were maintained in these conditions. During the 6-day selection period, the NeuroII media was changed daily. On day 6, the surviving neuronal precursor foci were dissociated with 0.05% Trypsin EDTA and the cells were plated at a density of 1.5×10^6 cells/100 mm Laminin coated dish in NeuroII-G418 medium. The cells were dissociated every other day for expansion, and prepared for Cryopreservation at passage 3 or 4. The cryopreservation medium contained 50% KSR, 10% Dimethyl Sulfoxide (DMSO) (Sigma) and 40% NeuroI-G418I medium. Neuronas precursors were crypreserved at a concentration of 4×10^6cells/ml and 1 ml/cryovial in a controlled rate freezer overnight then transferred to an ultra-low freezer or liquid nitrogen for long-term storage,
# Neuronal Differentiation: Cryopreserved ES cell-derived neuronal precursors were thawed by the rapid thaw method in a 37-degree water-bath. The cells were transferred from the cryovial to a 100 mm Laminin coated tissue culture dish that already contained NeuroII-G418 that had been equilibrated in a 2% Oxygen incubator. The media was changed with fresh NeuroII-G418 the next day. The cells were dissociated every other day as described above for expansion to generate enough cells to plate for the screen. For the screen, the cells were plated into 384-well poly-d-lysine coated tissue culture dishes (BD Biosciences) by the automated SelecT at a cell density of 6K cells/well in differentiation medium NeuroIII that contained a 4:1 ratio of the NeuroBasalMedium/B27:D-MEM/F12/N2 supplemented with 1 μM cAMP (Sigma), 200 μM Ascorbic Acid (Sigma), 1 μg/ml Laminin (Invitrogen) and 10 ng/ml BDNF (R&D Systems). The plates were put in an incubator with 2% Oxygen and allowed to complete the differentiation process for 7 days. The cells could then be used over a 5-day period for the high throughput screen.
# Procedure for AMPA ES Cell FLIPR Screen […]
# [1] = Dose 31.6 uM, individual determinations
# [2] = individual determinations, read-out: G7330B (U): EC50
# [3] = mean of individual determinations (range and n in cells below), read-out: G7330B mean EC50
# [4] = Dose 32.0 uM, individual determinations
compound,measurement,setting,value
"CC(C)S(=O)(=O)NC1CN(S(C)(=O)=O)CCC1c1ccc(-c2ccccc2)cc1 (stereo not drawn) [Example 6, propane-2-sulfonic acid (trans-4-biphenyl-4-yl-1-methanesulfonyl-piperidin-3-yl-amide]",G7330B (U): % Effect,[1],0.710% and −1.26% and 0.0628%
same,EC50,[2],> 31.6 µM
same,EC50,[3],> 31.6 µM
"CC(C)S(=O)(=O)NC1CCNCC1c1ccc(-c2ccccc2C#N)cc1 (stereo not drawn) [Example 20, Propane-2-sulfonic acid[trans-3-(2′-cyano-biphenyl-4-yl)-piperidin-4-yl]-amide]",G7330B (U): % Effect,[4],39.9% and 48.6% and 44.4%
same,EC50,[2],> 32 µM
same,EC50,[3],> 32 µM
"CC(C)S(=O)(=O)N[C@@H]1CCN(C)C[C@H]1c1ccc(NC(=O)c2ccccc2)cc1 (relative stereo) [Example 44, N-{4-[trans-1-Methyl-4-(propane-2-sulfonylamino)-piperidin-3-yl]-phenyl}-benzamide]",G7330B (U): % Effect,[1],1.85% and 1.10% and 5.81%
same,EC50,[2],> 31.6 µM
same,EC50,[3],> 31.6 µM
"CC(C)S(=O)(=O)N[C@@H]1CCNC[C@H]1c1ccc(-c2ccccc2C(N)=O)cc1 (relative stereo) [Example 21, 4′-[trans-4-(Propane-2-sulfonylamino)-piperidin-3-yl]-biphenyl-2-carboxylic acid amide]",G7330B (U): % Effect,[4],0.573% and 0.266% and 0.149%
same,EC50,[2],> 32 µM
same,EC50,[3],> 32 µM
"CC(C)S(=O)(=O)NC1COCCC1c1ccc(-c2ccc(F)cc2)cc1 (stereo not drawn) [Example 32, Propane-2-sulfonic acid[trans-4-(4′-fluoro-biphenyl-4-yl)-tetrahydro-pyran-3-yl]-amide]",G7330B (U): % Effect,[1],120% and 127% and 115%
same,EC50,[2],2.57 µM
same,EC50,[3],2.57 µM
"CC(C)S(=O)(=O)N[C@@H]1COCC[C@H]1c1ccc(-c2ccc(S(C)(=O)=O)cc2)cc1 [Example 37, Propane-2-sulfonic acid[trans-4-(4′-methanesulfonyl-biphenyl-4-yl)-tetrahydro-pyran-3-yl]-amide]",EC50,[2],> 10 µM
same,EC50,[3],> 10 µM
"CC(C)S(=O)(=O)N[C@@H]1CN(C)CC[C@H]1c1ccc(-c2ccccc2)cc1 [Example 4, Propane-2-sulfonic acid ((3S,4S)-4-biphenyl-4-yl-1-methyl-piperidin-3-yl)-amide]",G7330B (U): % Effect,[4],4.29% and 2.21% and 2.27% and 2.45% and 2.50% and 6.32% and 2.96% and 5.62% and 0.525%
same,EC50,[2],> 32 µM
same,EC50,[3],> 32 µM
"CCOc1ccccc1-c1ccc(C2CCOCC2NS(=O)(=O)C(C)C)cc1 (stereo not drawn) [Example 33, Propane-2-sulfonic acid[trans-4-(2′-ethoxy-biphenyl-4-yl)-tetrahydro-pyran-3-yl]-amide]",G7330B (U): % Effect,[1],122% and 121%
same,EC50,[2],1.94 µM
same,EC50,[3],1.94 µM
"CC(C)S(=O)(=O)NC1CCOCC1c1ccc(-c2ccccc2)cc1 (stereo not drawn) [Example 15, Propane-2-sulfonic acid(trans-3-biphenyl-4-yl-tetrahydro-pyran-4-yl)-amide]",G7330B (U): % Effect,[4],108% and 109% and 101%
same,EC50,[2],2.84 µM and 3.14 µM and 5.42 µM
same,EC50,[3],3.64 µM
"CC(C)S(=O)(=O)NC1COCCC1c1ccc(-c2ccccc2)cc1 (stereo not drawn) [Example 30, Propane-2-sulfonic acid(trans-4-biphenyl-4-yl-tetrahydro-pyran-3-yl)-amide]",G7330B (U): % Effect,[4],119% and 113% and 126%
same,EC50,[2],5.39 µM and > 31.6 µM and 6.36 µM
same,EC50,[3],> 10.3 µM
"CC(C)S(=O)(=O)NC1CCNCC1c1ccc(-c2ccccc2Cl)cc1 (stereo not drawn) [Example 22, Propane-2-sulfonic acid[trans-3-(2′-chloro-biphenyl-4-yl)-piperidin-4-yl]-amide]",G7330B (U): % Effect,[4],18.9% and 23.3% and 17.1%
same,EC50,[2],> 32 µM
same,EC50,[3],> 32 µM
"CC(C)S(=O)(=O)NC1COCCC1c1ccc(-c2ccccc2)cc1 (stereo not drawn) [Example 31, Propane-2-sulfonic acid(cis-4-biphenyl-4-yl-tetrahydro-pyran-3-yl)-amide]",G7330B (U): % Effect,[4],18.3% and 11.0% and 14.5%
same,EC50,[2],> 32 µM
same,EC50,[3],> 32 µM
